For the assay, the target named is T1, HIV-integrase (Human immunodeficiency virus type 1 group M subtype B, UniProt P12497).
T1 construct: Recombinant integrase (0.26 ng) was incubated with the beads
Put plainly: HIV-Integrase Inhibition Activity (SPA strand transfer assay). The following applies: recombinant integrase, SPA beads, P33 labeled target DNA; read-out: Activity (IC50 class, HIV-integrase inhibition). It is filed as biochemical. On the procedure: HIV-Integrase InhibitionActivity. To evaluate in-vitro activity against HIV-integrase, 5 pmole of biotin labeled substrate DNA was bound to 100 μg of Streptavidin coated PVT SPA beads (Amersham Pharmacia Biotech). Recombinant integrase (0.26 ng) was incubated with the beads for 90 min at 37° C. Unbound enzyme was removed by washing the complex followed by addition of inhibitors and 0.1 fmol of P33 labeled target DNA. The reaction was stopped by adding EDTA to a final concentration of 10 mM. Samples were counted in TopCountNXT (Packard) and the CPM was used as a measure of integration. The reaction condition was as described in A. Engelman and R. Craigie, J. Virol. 69, 5908-5911 (1995). The sequences of substrate and target DNA were described in Nucleic Acid Research 22, 1121-1122 (1994). Activity equal to A refers to a compound having IC50=0.002 to 0.10 μM while B and C denote compounds having IC50=0.1 to 1.0 μM and IC50≧1.0 μM respectively.

Where only a bound is given, the exact number is not on record here.

With `CNC(=O)c1ccoc1CNC(=O)c1nc2n(c(=O)c1O)CCOC2(C)C` [Example 12, Pyrimido[2,1-c][1,4]oxazine-2-carboxamide, 4,6,7,9-tetrahydro-3-hydroxy-9,9-dimethyl-N-[[3-[(methylamino)carbonyl]-2-furanyl]methyl]-4-oxo-], the 50% inhibitory concentration (IC50) (commonly the midpoint of a concentration-inhibition curve) was 2 to 100 nM.

In the case of `Cn1nc(CNC(=O)c2nc3n(c(=O)c2O)CCOC3(C)C)c2ccccc21` [Example 13, Pyrimido[2,1-c][1,4]oxazine-2-carboxamide, 4,6,7,9-tetrahydro-3-hydroxy-9,9-dimethyl-N-[(1-methyl-1H-indazol-3-yl)methyl]-4-oxo-], the half-maximal inhibitory concentration (IC50) was 2 to 100 nM.

Regarding `CC1(C)OCCn2c1nc(C(=O)NCCc1c[nH]c3ccc(F)cc13)c(O)c2=O` [Example 14, Pyrimido[2,1-c][1,4]oxazine-2-carboxamide, N-[2-(5-fluoro-1H-indol-3-yl)ethyl]-4,6,7,9-tetrahydro-3-hydroxy-9,9-dimethyl-4-oxo-], the IC50 lay in the range of 2 to 100 nM.

As to `CC1(C)OCCn2c1nc(C(=O)NCc1cn3ccccc3n1)c(O)c2=O` [Example 15, Pyrimido[2,1-c][1,4]oxazine-2-carboxamide, 4,6,7,9-tetrahydro-3-hydroxy-N-(imidazo[1,2-a]pyridin-2-ylmethyl)-9,9-dimethyl-4-oxo-], the IC50 was 2 to 100 nM.

Regarding `CNC(=O)c1ccc(CNC(=O)c2nc3n(c(=O)c2O)CCOC3(C)C)o1` [Example 16, 3-Hydroxy-9,9-dimethyl-N-((5-(methylcarbamoyl)-2-furyl)methyl)-4-oxo-4,6,7,9-tetrahydropyrimido[2,1-c][1,4]oxazine-2-carboxamider], the half-inhibitory concentration (IC50) was 100 to 1000 nM.

Take `CC1(C)OCCn2c1nc(C(=O)NCc1ccc(C(=O)N3CCOCC3)o1)c(O)c2=O` [Example 17, Pyrimido[2,1-c][1,4]oxazine-2-carboxamide, 4,6,7,9-tetrahydro-3-hydroxy-9,9-dimethyl-N-[[5-(4-morpholinylcarbonyl)-2-furanyl]methyl]-4-oxo-]: the IC50 was ≥ 1000 nM.

`Cc1cc(CNC(=O)c2nc3n(c(=O)c2O)CCOC3(C)C)nn1C(F)F` [Example 18, Pyrimido[2,1-c][1,4]oxazine-2-carboxamide, N-[[1-(difluoromethyl)-5-methyl-1H-pyrazol-3-yl]methyl]-4,6,7,9-tetrahydro-3-hydroxy-9,9-dimethyl-4-oxo-]: the concentration for half-maximal inhibition (IC50) fell in the range of 2 to 100 nM.

On to `Cc1cc(CNC(=O)c2nc3n(c(=O)c2O)CCOC3(C)C)nn1C(C)C` [Example 19, Pyrimido[2,1-c][1,4]oxazine-2-carboxamide, 4,6,7,9-tetrahydro-3-hydroxy-9,9-dimethyl-N-[[5-methyl-1-(1-methylethyl)-1H-pyrazol-3-yl]methyl]-4-oxo-], for which the concentration for half-maximal inhibition (IC50) fell in the range of 2 to 100 nM.

Regarding `Cc1cc(CNC(=O)c2nc3n(c(=O)c2O)CCOC3(C)C)nn1CCF` [Example 20, Pyrimido[2,1-c][1,4]oxazine-2-carboxamide, N-[[1-(2-fluoroethyl)-5-methyl-1H-pyrazol-3-yl]methyl]-4,6,7,9-tetrahydro-3-hydroxy-9,9-dimethyl-4-oxo-], the concentration for half-maximal inhibition (IC50) was in the range of 2 to 100 nM.

As for `Cc1cc(C)n2nc(CNC(=O)c3nc4n(c(=O)c3O)CCOC4(C)C)nc2n1` [Example 21, Pyrimido[2,1-c][1,4]oxazine-2-carboxamide, N-[(5,7-dimethyl[1,2,4]triazolo[1,5-a]pyrimidin-2-yl)methyl]-4,6,7,9-tetrahydro-3-hydroxy-9,9-dimethyl-4-oxo-], the IC50 was ≥ 1000 nM.

In the case of `CC1(C)OCCn2c1nc(C(=O)NCc1nc3ccccc3[nH]1)c(O)c2=O` [Example 22, Pyrimido[2,1-c][1,4]oxazine-2-carboxamide, N-(1H-benzimidazol-2-ylmethyl)-4,6,7,9-tetrahydro-3-hydroxy-9,9-dimethyl-4-oxo-], the IC50 is ≥ 1000 nM.

Turning to `Cc1ncsc1CNC(=O)c1nc2n(c(=O)c1O)CCOC2(C)C` [Example 23, Pyrimido[2,1-c][1,4]oxazine-2-carboxamide, 4,6,7,9-tetrahydro-3-hydroxy-9,9-dimethyl-N-[(4-methyl-5-thiazolyl)methyl]-4-oxo-], the IC50 was ≥ 1000 nM.

Turning to `Cc1nc(C)c(CNC(=O)c2nc3n(c(=O)c2O)CCOC3(C)C)s1` [Example 24, Pyrimido[2,1-c][1,4]oxazine-2-carboxamide, N-[(2,4-dimethyl-5-thiazolyl)methyl]-4,6,7,9-tetrahydro-3-hydroxy-9,9-dimethyl-4-oxo-], the IC50 lay within 2 to 100 nM.

Take `Cn1cc(CNC(=O)c2nc3n(c(=O)c2O)CCOC3(C)C)nn1` [Example 25, Pyrimido[2,1-c][1,4]oxazine-2-carboxamide, 4,6,7,9-tetrahydro-3-hydroxy-9,9-dimethyl-N-[(1-methyl-1H-1,2,3-triazol-4-yl)methyl]-4-oxo-]: the IC50 is ≥ 1000 nM.

On to `Cn1cc(CN(Cc2cn(C)nn2)C(=O)c2nc3n(c(=O)c2O)CCOC3(C)C)nn1` [Example 26, Pyrimido[2,1-c][1,4]oxazine-2-carboxamide, 4,6,7,9-tetrahydro-3-hydroxy-9,9-dimethyl-N,N-bis[(1-methyl-1H-1,2,3-triazol-4-yl)methyl]-4-oxo-], for which the 50% inhibitory concentration (IC50) is ≥ 1000 nM.

Turning to `CC1(C)OCCn2c1nc(C(=O)NCc1ccc(Cc3ccccc3)o1)c(O)c2=O` [Example 27, Pyrimido[2,1-c][1,4]oxazine-2-carboxamide, 4,6,7,9-tetrahydro-3-hydroxy-9,9-dimethyl-4-oxo-N-[[5-(phenylmethyl)-2-furanyl]methyl]], the IC50 was 2 to 100 nM.

`CC1(C)OCCn2c1nc(C(=O)NCc1cccs1)c(O)c2=O` [Example 28, Pyrimido[2,1-c][1,4]oxazine-2-carboxamide, 4,6,7,9-tetrahydro-3-hydroxy-9,9-dimethyl-4-oxo-N-(2-thienylmethyl)-]: the IC50 is 2 to 100 nM.

`Cc1ccc(CNC(=O)c2nc3n(c(=O)c2O)CCOC3(C)C)s1` [Example 29, Pyrimido[2,1-c][1,4]oxazine-2-carboxamide, 4,6,7,9-tetrahydro-3-hydroxy-9,9-dimethyl-N-[(5-methyl-2-thienyl)methyl]-4-oxo-]: the half-maximal inhibitory concentration (IC50) lay within 2 to 100 nM.

`Cc1csc(CNC(=O)c2nc3n(c(=O)c2O)CCOC3(C)C)c1` [Example 30, Pyrimido[2,1-c][1,4]oxazine-2-carboxamide, 4,6,7,9-tetrahydro-3-hydroxy-9,9-dimethyl-N-[(4-methyl-2-thienyl)methyl]-4-oxo-]: the concentration for half-maximal inhibition (IC50) is 2 to 100 nM.

On to `Cc1cc(CNC(=O)c2nc3n(c(=O)c2O)CCOC3(C)C)sc1C` [Example 31, N-((4,5-dimethyl-2-thienyl)methyl)-3-hydroxy-9,9-dimethyl-4-oxo-4,6,7,9-tetrahydropyrimido[2,1-c][1,4]oxazine-2-carboxamide], for which the IC50 was 2 to 100 nM.

On to `Cc1cc(CNC(=O)c2nc3n(c(=O)c2O)CCOC3(C)C)cs1` [Example 32, Pyrimido[2,1-c][1,4]oxazine-2-carboxamide, 4,6,7,9-tetrahydro-3-hydroxy-9,9-dimethyl-N-[(5-methyl-3-thienyl)methyl]-4-oxo-], for which the IC50 lay in the range of 2 to 100 nM.

With `Cc1cc(Br)c(CNC(=O)c2nc3n(c(=O)c2O)CCOC3(C)C)s1` [Example 33, Pyrimido[2,1-c][1,4]oxazine-2-carboxamide, N-[(3-bromo-5-methyl-2-thienyl)methyl]-4,6,7,9-tetrahydro-3-hydroxy-9,9-dimethyl-4-oxo-], the IC50 was 2 to 100 nM.

The values are drawn from patent publication US7893055B2, “HIV integrase inhibitors” (priority 2006, dated 2011).
